Experimental data reported in patent publication US20180072675A1, “ANTIMICROBIAL PYRIDINOHYDRAZIDE AND HYDRAZOMETHYLPYRIDINE-BASED AGENTS” (Board of Supervisors of Louisiana State University and …, priority 2015, published 2018).
Values after ≈ are worked out from the molar mass of the structure shown. “Also recorded” adds a separate entry of the source.

What was measured:
[1] = system: C. albicans clinical isolate 1 (TW1); experiment: MIC80 fungal growth inhibition, clinical isolate TW1; assay type: cell-based, Candida albicans; conditions: Azole-susceptible, >80% growth inhibition, visual scoring; for MIC80: Candida albicans, read-out: MIC80 TW1
Method: (§1) The antifungal activity of the pyridinohydrazide and hydrazomethylpyridine derivatives described in the s were evaluated in vitro using Candida albicans (ATCC Accession No. 10231) and Candida glabrata (ATCC Accession No. 48435). In addition, the compounds were evaluated for activity against two previously-described clinical isolates of C. albicans known to have developed azole-resistance. These isolates were obtained over a two year period from a single AIDS patient and the development of the azole-resistance mechanisms have been extensively characterized (White T C. Antimicrob. Agents Chemother. (1997) 41: 1482-1487). MIC assays were performed on the clinical isolates 1 and 17 (annotated TW1 and TW17, respectively), where isolate 1 was used as an azole-susceptible control and isolate 17 was considered azole-resistant. All assays were done in accordance with NCCLS reference documents (Clinical Laboratory and Standards Institute. Reference method for Broth Dilution Antifungal Susceptibility Testing of Yeasts: Approved Standard. M27-A3 2010; 28). The results of these screenings are summarized in Tables 1-9 (Examples 20-27) as the minimum concentrations that inhibited more than 80% of fungal growth (MIC80) as compared to positive controls containing 1% DMSO. Assays were performed in HEPES-buffered RPMI-1640 media. All MIC screens used a visual scoring method as opposed to spectroscopic analysis, due to the altered absorbance spectra of many of the compounds.

[2] = system: C. albicans clinical isolate 17 (TW17); experiment: MIC80 fungal growth inhibition, clinical isolate TW17; assay type: cell-based, Candida albicans; conditions: for MIC80: Candida albicans, read-out: MIC80 TW17; for MIC80 / MIC80 TW17: Azole-resistant, >80% growth inhibition, visual scoring
Method: as §1

[3] = system: Candida albicans (ATCC Accession No. 10231); experiment: MIC80 fungal growth inhibition, C. albicans ATCC 10231; assay type: cell-based; conditions: Azole-susceptible, >80% growth inhibition, visual scoring; for MIC80: Candida albicans, ATCC10231, read-out: MIC80 C. albicans ATCC No. 10231
Method: as §1

[4] = system: Candida glabrata (ATCC Accession No. 48435); experiment: MIC80 fungal growth inhibition, C. glabrata ATCC 48435; assay type: cell-based; conditions: Azole-resistant, >80% growth inhibition, visual scoring; for MIC80: Nakaseomyces glabratus, ATCC48435, read-out: MIC80 C. glabrata ATCC No. 48435
Method: as §1

protozoal proliferation = experiment: Protozoal proliferation; assay type: cell-based; conditions: FIG. 27
Candida strain TW17 = experiment: Time-kill assay; assay type: cell-based, Candida albicans; conditions: four times the MIC for TW17, 48 h
Method: FIG. 9 illustrates time-kill assays, for representative analogs that were active against the azole-resistant TW17, to determine the cidal or static nature of the analog tested. 100 μl of each sample was spread onto YM agar plates with a sterile bent spreading rod. Plates were incubated at 35° C. overnight and colonies were then counted on each plate.
One of the objectives of this study was to determine the cidal or static nature of the analogs that were active against such as TW17, the azole-resistant clinical isolate. Azoles affect Candida spp. by inhibiting ergosterol biosynthesis, and ultimately prevent their reproduction. This effect has led to the classification of azoles as fungistats. Determining the fungistatic or fungicidal nature of the synthesized compounds of the present disclosure allows a comparison to azoles, in addition to improving the understanding of how the structural motifs might lend toward an alternate mechanism of action. Therefore, time-kill assays were performed using the representative analogs that were active against the azole-resistant TW17 at concentrations at or below 8 μg/mL.
Solid drugs were dissolved in DMSO to a concentration of 10 mg/ml. This stock solution was then further diluted in water to the desired experimental concentration, determined to be four times that of the MIC for the Candida strain TW17 (as reported in the Tables).
Individual colonies of TW17 were suspended in 5 ml of sterile water and adjusted to achieve a McFarland reading between 0.08 and 0.12. The inoculum was then further diluted in sterile water at a ratio of 1:100. Three […] tissue culture tubes were prepared by combining 2.5 ml of above diluted inoculum, 21.7 ml of HEPES buffered RPMI-1640 media, and 800 μl of experimental drug dilution. A “Growth Control” tube was prepared by combining 2.5 ml of inoculum, 21.7 HEPES buffered RPMI-1640 media, and 800 μl of water-DMSO solution equal to the DMSO concentration of the experimental drug dilution. A “Sterile Control” tube was prepared by combining 24.2 ml of HEPES-buffered RPMI-1640 media and 800 μl of water-DMSO solution as in the “Growth Control”. All tubes were incubated for 48 hours at 35° C., 50 rpm. 500 μl samples were taken from the tubes at time points of predetermined intervals during this incubation.
Time points for the “Kill-Curve” and “Growth Control” tubes were taken at 0, 1, 2, 4, 6, 8, 24, and 48 h after the start of incubation. Time points for “Sterile Control” were taken at 0 and 48 hours. Each time point sample was serially diluted 1:10 in sterile 0.9% NaCl solution up to 5 times. 100 μl of each sample was spread onto YM agar plates with a sterile bent spreading rod. Plates were incubated at 35° C. overnight and colonies were then counted on each plate. Colonies on plates from diluted time points were used to estimate uncountable undiluted samples. The number of colonies in undiluted samples was estimated to be 10^n times greater than the diluted sample, where n was the number of dilutions made.

[5] = system: Candida albicans ATCC Accession No. 10231; experiment: Checkerboard synergy assay with fluconazole; assay type: cell-based; conditions: for FIC Fluc: average FIC of fluconazole at varying concentrations of the test drug; for FIC Test: average FIC of the test drug at varying concentrations of fluconazole; for Activity (interaction with fluconazole): from FIC index; for FIC Index: sum of the two FICs, <1 synergistic, >=1 antagonistic
Method: Considering that two different modes of activity (cidal and static) were observed depending on the structural motifs present in our analogs, we performed a series of checkerboard assays to determine if representative active compounds were in fact acting in synergy with the azole, fluconazole. Each of these assays tested multiple concentrations of the selected analog in the presence of multiple concentrations of fluconazole. All checkerboard assays were prepared in 96-well plates. 200 μl of previously prepared drug solutions were added to each well in column 2. Using a multichannel pipette, 100 μl from each well in column 2 was serially diluted (1:2) horizontally across the plate, stopping at column 10. Contents of each well were mixed thoroughly. Column 11 was reserved for fluconazole MIC control and contained no other drug. 100 μl of media was added to each well, column 2-10. Each well was mixed thoroughly with a multichannel pipette. 100 μl was then removed and discarded from these wells. 100 μl of previously prepared fluconazole dilution was added to each well in row B. Using a multichannel pipette, 100 μl from each well was serially diluted (1:2) vertically down the plate, stopping at row F. Contents of each well were mixed thoroughly. Row G was reserved for tested drug MIC control and contained no fluconazole. Well G11 contained neither drug and served as a drug-free growth control. The final 100 μl from each well in row F was discarded.
The fungal samples were prepared from glycerol stocks of Candida albicans ATCC Accession No. 10231. The inoculum's concentration was adjusted to a McFarland standard between 0.08 and 0.12. Inoculum was then diluted at a ratio of 1:37.5 in buffered media. 100 μl of inoculum-media solution was added to each well. Following inoculation, the 96-well plates were wrapped in parafilm to prevent evaporation and incubated for overnight at 35° C. After 18 h, the wells showing growth were recorded.
Synergistic activity was determined based on the MIC read from these plates. The fractional inhibitory concentration (FIC) for a given well is the ratio of the minimum inhibitory concentration of one drug A in the presence another drug B to the minimum inhibitory concentration with only drug A. The FIC was calculated for the test drug in each of the wells along the growth/no-growth interface at varying concentrations of fluconazole, then these values were averaged to determine the average FIC for the test drug. The same process was used to calculate the average FIC for fluconazole at varying concentrations of the test drug. The sum of these two FICs gives the FIC index which can be used to determine the synergistic effect between the two drugs (Hsieh et al., Diagn. Microbiol. Infect. Dis. (1993) 16: 343-349). An FIC index value less than 1 indicated synergistic interactions between the two drugs while an FIC index value greater than or equal to 1 indicated antagonistic interactions.

Candida spp. = experiment: MIC studies, statements pooled over several isolates; assay type: cell-based, Candida albicans, Candida glabrata; conditions: for antifungal activity (in words): overall over the isolates tested
Method: as §1

Vero (kidney) cells = experiment: Mammalian cell toxicity, Promega CellTiter 96, kidney cells; assay type: cell-based; conditions: through 10× MIC, 24 h
Method: (§2) Cytotoxicity was determined using non-cancerous Vero cells (kidney-african green monkey) and liver cells (Hep-2G) in accordance with Promega CellTiter 96 Non-Radioactive Cell Proliferation Assay (cat # G4000). Compounds were diluted in media and all assays were done in triplicate. Average values are presented, with ±SD. Cells were incubated in the presence of the compounds for 24 h at 37° C. and 5% CO2. Tetrazolium dye solution was added to each well and allowed to incubate for 1-4 h. Solubilization/Stop solution was added and allowed to sit at room temperature for 1 h. Formazan product was scored spectrophotometrically with an automatic plate reader set at 570 nm. Positive control wells for cell death were briefly treated with 0.1% saponin, immediately prior to the addition of dye solution. Wells containing 1% DMSO and no drug were used as a negative control and the average absorbance at 570 nm were set to 100%. The percent of cells viable were calculated as a ratio between the average absorption at 570 nm of the drug containing wells/average absorption at 570 nm of the control (no drug). Ratios were multiplied by 100 to give the values as a percentage as expressed on the y-axis.
(§3) Cytotoxicity studies were performed in accordance with Promega CellTiter 96 Non-RadioactivCell Proliferation Assay (cat #G4000). All cytotoxicity studies used a negative control (wells of either kidney or liver cells containing 1% DMSO but lacking the analog), a positive control (wells of either kidney or liver cells treated with the known cytotoxic agent, saponin) and the serial dilutions of the novel analogs. All control (negative) wells were normalized to 100% viable cells to accurately show the percentage of either liver or kidney cells that remained alive and viable following either overnight incubation with the analogs or 5-minute treatment with 0.1% saponin.

Hep G2 (liver) cells = experiment: Mammalian cell toxicity, Promega CellTiter 96, liver cells; assay type: cell-based; conditions: through 10× MIC, 24 h
Method: as §2, §3

SMILES | MIC80 TW1 [1] [µg/mL] | MIC80 C. albicans ATCC No. 10231 [3] [µg/mL] | MIC80 C. glabrata ATCC No. 48435 [4] [µg/mL] | MIC80 TW17 [2] [µg/mL] | MIC80 [1] [µg/mL] | MIC80 [2] [µg/mL] | MIC80 [4] [µg/mL] | effect on protozoal proliferation (protozoal proliferation) | further results
O=C(N/N=C/c1cc(Cl)ccc1O)c1ccccn1 [AR4, (E)-N′-(5-Chloro-2-hydroxybenzylidene)picolinohydrazide] |  |  |  |  | 4 (≈ 14.5 µM) | 8 (≈ 29 µM) | 1 (≈ 3.63 µM) | reduce protozoal proliferation | MIC80 [3]: 1 µg/mL (≈ 3.63 µM)
O=C(N/N=C/c1cc(Br)ccc1O)c1ccccn1 [AR5, (E)-N′-(5-bromo-2-hydroxybenzylidene)picolinohydrazide] |  |  |  |  | 2 (≈ 6.25 µM) | 4 (≈ 12.5 µM) | 4 (≈ 12.5 µM) | reduce protozoal proliferation | MIC80 [3]: 1 µg/mL (≈ 3.12 µM); Cidal vs Static (Candida strain TW17): fungicidal; also recorded: Cidal; FIC Fluc [5]: 1.00; FIC Test [5]: 0.90; Activity (interaction with fluconazole) [5]: Antagonistic; FIC Index [5]: 1.90
O=C(N/N=C/c1ccccc1O)c1cccnc1O [AR19] |  |  |  |  | 4 (≈ 15.5 µM) | 4 (≈ 15.5 µM) | 1 (≈ 3.89 µM) |  | cell toxicity (Vero (kidney) cells): minimal toxicity; cell toxicity (Hep G2 (liver) cells): minimal toxicity; growth inhibition (in words) (Candida spp.; across all Candida albicans isolates): growth inhibition was observed at very low concentrations
O=C(NN=Cc1ccccn1)c1ccccn1 [AR34] | 16 (≈ 70.7 µM) | 31 (≈ 137 µM) | 16 (≈ 70.7 µM) | 16 (≈ 70.7 µM) |  |  |  |  | antifungal activity (in words) (Candida spp.): moderate activity
O=C(N/N=C/c1cc([N+](=O)[O-])ccc1O)c1ccncc1 [SA113] |  |  |  |  |  |  |  | reduce protozoal proliferation | 

Further lines, with some results ahead:

MIC80 TW1 [1] [µg/mL] | MIC80 C. albicans ATCC No. 10231 [3] [µg/mL] | MIC80 C. glabrata ATCC No. 48435 [4] [µg/mL] | MIC80 TW17 [2] [µg/mL] | SMILES | MIC80 [1] [µg/mL] | MIC80 [2] [µg/mL] | MIC80 [4] [µg/mL] | effect on protozoal proliferation (protozoal proliferation) | further results
16 (≈ 62.7 µM) | 4 (≈ 15.7 µM) | 8 (≈ 31.3 µM) |  | Cc1ccc(O)c(/C=N/NC(=O)c2cccnc2)c1 [AR8] |  |  |  |  | activity against azole-resistant isolates (in words) (Candida spp.; azole-resistant isolates): less active
4 (≈ 13.2 µM) | 8 (≈ 26.5 µM) | 4 (≈ 13.2 µM) | 2 (≈ 6.62 µM) | O=C(N/N=C/c1cc([N+](=O)[O-])ccc1O)c1ccc[n+]([O-])c1 [AR28] |  |  |  |  | activity against azole-resistant TW17 [2]: 2 µM; Cidal vs Static (Candida strain TW17): Static; FIC Fluc [5]: 1.00; FIC Test [5]: 1.00; Activity (interaction with fluconazole) [5]: Antagonistic; FIC Index [5]: 2.00
16 (≈ 81.1 µM) | 16 (≈ 81.1 µM) | 31 (≈ 157 µM) | 16 (≈ 81.1 µM) | C(=NNc1ccccc1)c1ccccn1 [AR29] |  |  |  |  | antifungal activity (in words) (Candida spp.): moderate activity
